Measurements as given in patent publication US6759060B2, “Synthetic particulate vectors and preparation process” (Biovector Therapeutics, S.A., priority 1993, dated 2004).
Values joined by “and” are separate entries in the source; they are usually repeats but may differ in a detail not shown here. Equal entries are not always repeated.

Tests used:
[1] = cited from earlier work
[2] = Filterability of ddCTP/PSC (filtration yield); type: physicochemical; conditions: ddCTP with or without cationic PSC

Row | Molecule | pKa [1] | Filtration yield % [2]
1 | COc1cccc2c1C(=O)c1c(O)c3c(c(O)c1C2=O)C[C@@](O)(C(=O)CO)C[C@@H]3O[C@H]1C[C@H](N)[C@H](O)[C@H](C)O1 [Doxorubicin] | 8.5 and 8.2-8.5 | –
2 | dideoxy cytidine triphosphate [Free ddCTP] | – | 99.4 ± 0.8%
